Results from the supplement of paper PMC9512659.

Legend:
[1] = system: Mycobacterium tuberculosis Erdman (pMV306hsp+LuxG13); assay: Einf, effect of the drug pair at infinite dose (maximum growth inhibition) (fraction inhibition (0-1)); higher = more potent; extreme values may be limits of the assay
Protocol: (§1)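 DiaMOND pairwise dose responses of an equipotent two-drug mixture (1.5-fold, 10-dose series) against autoluminescent M. tuberculosis Erdman in 384-well plates. Growth inhibition was read by OD600 (luminescence for dormancy) in seven media at a constant and a terminal time point; metrics are means of at least biological duplicates. Einf and AUC25 higher = more potent; GRinf lower = more potent; log2FIC negative = synergy.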

[2] = system: Mycobacterium tuberculosis Erdman (pMV306hsp+LuxG13); assay: GRinf, normalised growth-rate inhibition at infinite dose (GR value (unitless, negative = killing)); higher = less potent
Protocol: as §1

[3] = system: Mycobacterium tuberculosis Erdman (pMV306hsp+LuxG13); assay: log2 fractional inhibitory concentration at 50% inhibition (log2 FIC); higher = more antagonistic
Protocol: as §1

[4] = system: Mycobacterium tuberculosis Erdman (pMV306hsp+LuxG13); assay: log2 fractional inhibitory concentration at 90% inhibition (log2 FIC); higher = more antagonistic
Protocol: as §1

[5] = system: Mycobacterium tuberculosis Erdman (pMV306hsp+LuxG13); assay: AUC25, normalised area under the dose-response curve up to IC25 (normalised AUC (unitless)); higher = more potent
Protocol: as §1

NC(=O)c1cnccn1 [pyrazinamide] + CC(C)=CCC/C(C)=C/CNCCNC1C2CC3CC(C2)CC1C3 [SQ109]
Conditions | AUC25, [5] | Einf, [1] | GRinf, [2] | log2 fractional inhibitory concentration, [3] | log2 fractional inhibitory concentration, [4]
growth medium: butyrate 5 mM, time point: constant time point | 0.0786 | 0.915 | -0.00249 | 0.356 | –
growth medium: butyrate 5 mM, time point: terminal time point | 0.0634 | 0.946 | 0.022 | 0.129 | –
growth medium: cholesterol 0.05 mM, time point: constant time point | 0.116 | 0.894 | -0.787 | – | –
growth medium: cholesterol 0.2 mM (cholesterol-high), time point: constant time point | 0.0592 | 0.977 | -0.852 | 0.707 | -0.16
growth medium: cholesterol 0.2 mM (cholesterol-high), time point: terminal time point | 0.0665 | 0.997 | -0.789 | 0.668 | -0.347
growth medium: standard 7H9 OADC glycerol, time point: constant = terminal time point (4.2 d) | 0.032 | 0.84 | 0.242 | – | –
growth medium: valerate 0.1%, time point: constant time point | 0.0384 | 0.933 | 0.0532 | -0.164 | –
growth medium: valerate 0.1%, time point: terminal time point | 0.0424 | 0.944 | 0.0196 | -0.462 | –

CC[C@@H](CO)NCCN[C@@H](CC)CO [ethambutol] + CC(=O)NC[C@H]1CN(c2ccc(N3CCSCC3)c(F)c2)C(=O)O1 [sutezolid]
Conditions | AUC25, [5] | Einf, [1] | GRinf, [2] | log2 fractional inhibitory concentration, [3] | log2 fractional inhibitory concentration, [4]
growth medium: acidic pH 5.7, glycerol, time point: constant time point | 0.122 | 0.837 | -0.0739 | -0.476 | –
growth medium: acidic pH 5.7, glycerol, time point: terminal time point | 0.0981 | 0.989 | -0.214 | 0.638 | 0.0843
growth medium: butyrate 5 mM, time point: constant time point | 0.0681 | 0.911 | 0.0455 | 0.936 | –
growth medium: butyrate 5 mM, time point: terminal time point | 0.0502 | 0.954 | 0.0337 | 0.703 | -0.108
growth medium: cholesterol 0.05 mM, time point: constant time point | 0.121 | 1 | -1 | 0.779 | -0.482
growth medium: cholesterol 0.05 mM, time point: terminal time point | 0.104 | 1 | -0.945 | -0.083 | -1.28
growth medium: cholesterol 0.2 mM (cholesterol-high), time point: constant time point | 0.0903 | 1 | -1 | -0.151 | –
growth medium: cholesterol 0.2 mM (cholesterol-high), time point: terminal time point | 0.109 | 1 | -0.852 | -0.578 | -0.0598
growth medium: standard 7H9 OADC glycerol, time point: constant = terminal time point (4.2 d) | 0.0717 | 0.982 | -0.118 | 0.607 | 0.432
growth medium: valerate 0.1%, time point: constant time point | 0.132 | 0.931 | -1 | -0.351 | –
growth medium: valerate 0.1%, time point: terminal time point | 0.0852 | 0.975 | -0.02 | 0.139 | 0.287

growth medium: hypoxic dormancy (butyrate + nitrate), then recovery
Conditions | AUC25, [5] | Einf, [1] | GRinf, [2] | log2 fractional inhibitory concentration, [3] | log2 fractional inhibitory concentration, [4]
time point: constant time point | 0.0614 | 0.989 | -0.104 | 0.45 | –
time point: terminal time point | 0.0966 | 0.979 | -0.187 | 1.4 | 0.341

CO[C@H]1/C=C/O[C@@]2(C)Oc3c(C)c(O)c4c(O)c(c(/C=N/N5CCN(C6CCCC6)CC5)c(O)c4c3C2=O)NC(=O)/C(C)=C\C=C\[C@H](C)[C@H](O)[C@@H](C)[C@@H](O)[C@@H](C)[C@H](OC(C)=O)[C@@H]1C [rifapentine] + CC(=O)NC[C@H]1CN(c2ccc(N3CCSCC3)c(F)c2)C(=O)O1 [sutezolid]
Conditions | AUC25, [5] | Einf, [1] | GRinf, [2] | log2 fractional inhibitory concentration, [3] | log2 fractional inhibitory concentration, [4]
growth medium: acidic pH 5.7, glycerol, time point: constant time point | 0.0889 | 0.884 | -0.224 | -0.201 | –
growth medium: acidic pH 5.7, glycerol, time point: terminal time point | 0.0808 | 0.987 | -0.263 | 0.0996 | -0.527
growth medium: butyrate 5 mM, time point: constant time point | 0.0809 | 0.896 | 0.0472 | 0.129 | –
growth medium: butyrate 5 mM, time point: terminal time point | 0.0542 | 0.942 | 0.0324 | 0.16 | -0.276
growth medium: cholesterol 0.05 mM, time point: constant time point | 0.0962 | 1 | -1 | -0.454 | 0.00059
growth medium: cholesterol 0.05 mM, time point: terminal time point | 0.135 | 1 | -1 | -1.5 | -0.142
growth medium: cholesterol 0.2 mM (cholesterol-high), time point: constant time point | 0.0718 | 1 | -1 | -0.331 | -0.285
growth medium: cholesterol 0.2 mM (cholesterol-high), time point: terminal time point | 0.0787 | 1 | -0.769 | -0.38 | -0.276
growth medium: standard 7H9 OADC glycerol, time point: constant = terminal time point (4.2 d) | 0.0417 | 0.983 | -0.0675 | -0.00234 | -0.509
growth medium: valerate 0.1%, time point: constant time point | 0.107 | 0.877 | -0.107 | -0.128 | –
growth medium: valerate 0.1%, time point: terminal time point | 0.0657 | 0.976 | -0.0835 | 0.176 | 0.234

growth medium: hypoxic dormancy (butyrate + nitrate), then recovery
Conditions | AUC25, [5] | Einf, [1] | GRinf, [2] | log2 fractional inhibitory concentration, [3] | log2 fractional inhibitory concentration, [4]
time point: constant time point | 0.0482 | 0.974 | 0.21 | -0.541 | -0.514
time point: terminal time point | 0.0473 | 0.963 | 0.209 | 0.397 | 0.244

NC(=O)c1cnccn1 [pyrazinamide] + CC(=O)NC[C@H]1CN(c2ccc(N3CCSCC3)c(F)c2)C(=O)O1 [sutezolid]
Conditions | AUC25, [5] | Einf, [1] | GRinf, [2] | log2 fractional inhibitory concentration, [3] | log2 fractional inhibitory concentration, [4]
growth medium: acidic pH 5.7, glycerol, time point: constant time point | 0.128 | 0.818 | -0.0805 | -0.856 | –
growth medium: acidic pH 5.7, glycerol, time point: terminal time point | 0.124 | 0.99 | -0.272 | -0.292 | -0.518
growth medium: butyrate 5 mM, time point: constant time point | 0.0878 | 0.913 | 0.0976 | 0.557 | –
growth medium: butyrate 5 mM, time point: terminal time point | 0.0684 | 0.949 | 0.124 | – | –
growth medium: cholesterol 0.05 mM, time point: constant time point | 0.0696 | 1 | -1 | 0.194 | –
growth medium: cholesterol 0.2 mM (cholesterol-high), time point: constant time point | 0.0979 | 0.996 | -0.785 | 0.242 | 0.258
growth medium: cholesterol 0.2 mM (cholesterol-high), time point: terminal time point | 0.105 | 1 | -0.929 | -0.145 | 0.207
growth medium: valerate 0.1%, time point: constant time point | 0.0804 | 0.884 | -0.147 | 0.999 | –
growth medium: valerate 0.1%, time point: terminal time point | 0.0613 | 0.962 | -0.0671 | 0.436 | –

growth medium: hypoxic dormancy (butyrate + nitrate), then recovery
Conditions | AUC25, [5] | Einf, [1] | GRinf, [2] | log2 fractional inhibitory concentration, [3]
time point: constant time point | 0.0726 | 0.984 | -0.401 | –
time point: terminal time point | 0.0286 | 0.786 | -0.5 | 0.898
